From BindingDB's records for patent US20250034159 (Oric Pharmaceuticals, 2025)

Assays:
[1] = target: T1, Epidermal growth factor receptor [DEL746-750,C797S] (Homo sapiens, UniProt P00533, C797S/DEL746-750); test: Biochemical Assay Against EGFR Exon 19 Deletion/C797S Protein (EGFR d19/CS)
T1 construct: gene EGFR
Experimental: (§1) In wells A1 and A24, were added 12 μL of DMSO. […] To a well in Row A were added 12 μL of each 10 mM test compound stock (100% DMSO). […] The final intermediate dilution plate contained 4×16-point compound serial dilutions in assay buffer. The DMSO concentration was 10%. The intermediate compound dilution plate was transferred to the Bravo and the “5 uL dispense into ARP.pro” protocol was run. To the black low volume assay ready plates, were added 5 μL of 40 uM Phosphosens peptide sensor/4 mM ATP working solution to each well. […] To column 24, was added 10 μL of assay buffer. The final DMSO concentration was 2.5%.

[2] = target: Epidermal growth factor receptor [L858R,C797S] (Human, UniProt P00533, C797S/L858R); test: Biochemical Assay Against EGFR L858R/C797S Protein (EGFR LR/CS)
Experimental: as §1

T1 sequence (P00533 with tags, fused parts or gaps C797S/DEL746-750 limits assumed): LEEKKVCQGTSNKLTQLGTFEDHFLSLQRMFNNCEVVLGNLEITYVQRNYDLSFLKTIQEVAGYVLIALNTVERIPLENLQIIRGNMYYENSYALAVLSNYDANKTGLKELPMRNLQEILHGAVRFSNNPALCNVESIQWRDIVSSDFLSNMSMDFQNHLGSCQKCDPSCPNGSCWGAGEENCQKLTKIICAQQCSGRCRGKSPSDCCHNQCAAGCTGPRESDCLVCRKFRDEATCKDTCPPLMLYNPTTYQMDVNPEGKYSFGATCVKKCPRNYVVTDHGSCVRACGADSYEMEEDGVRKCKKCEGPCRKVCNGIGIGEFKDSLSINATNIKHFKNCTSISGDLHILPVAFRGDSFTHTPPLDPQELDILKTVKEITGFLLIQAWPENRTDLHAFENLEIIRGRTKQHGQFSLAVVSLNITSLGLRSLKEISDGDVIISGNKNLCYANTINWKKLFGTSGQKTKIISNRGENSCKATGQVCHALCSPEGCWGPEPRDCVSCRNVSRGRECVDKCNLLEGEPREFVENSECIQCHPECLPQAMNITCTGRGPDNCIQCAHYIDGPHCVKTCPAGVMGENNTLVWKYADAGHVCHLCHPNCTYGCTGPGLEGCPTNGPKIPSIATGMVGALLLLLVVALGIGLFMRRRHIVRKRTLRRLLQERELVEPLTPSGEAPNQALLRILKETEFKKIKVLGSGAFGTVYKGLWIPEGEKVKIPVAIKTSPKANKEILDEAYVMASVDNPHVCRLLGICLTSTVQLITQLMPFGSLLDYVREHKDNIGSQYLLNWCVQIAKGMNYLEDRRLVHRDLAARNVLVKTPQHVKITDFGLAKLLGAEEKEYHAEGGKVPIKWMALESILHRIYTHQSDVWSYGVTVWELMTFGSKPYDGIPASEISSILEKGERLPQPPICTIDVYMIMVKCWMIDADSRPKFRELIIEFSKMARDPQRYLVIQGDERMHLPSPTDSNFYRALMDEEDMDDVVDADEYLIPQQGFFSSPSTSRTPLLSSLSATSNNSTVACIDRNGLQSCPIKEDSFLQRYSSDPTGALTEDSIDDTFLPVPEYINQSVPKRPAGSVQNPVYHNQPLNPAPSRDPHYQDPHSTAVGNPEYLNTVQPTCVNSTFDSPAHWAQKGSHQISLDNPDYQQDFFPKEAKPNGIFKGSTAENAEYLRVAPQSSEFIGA
Epidermal growth factor receptor [L858R,C797S], sequence (P00533 25-1210 C797S/L858R limits assumed): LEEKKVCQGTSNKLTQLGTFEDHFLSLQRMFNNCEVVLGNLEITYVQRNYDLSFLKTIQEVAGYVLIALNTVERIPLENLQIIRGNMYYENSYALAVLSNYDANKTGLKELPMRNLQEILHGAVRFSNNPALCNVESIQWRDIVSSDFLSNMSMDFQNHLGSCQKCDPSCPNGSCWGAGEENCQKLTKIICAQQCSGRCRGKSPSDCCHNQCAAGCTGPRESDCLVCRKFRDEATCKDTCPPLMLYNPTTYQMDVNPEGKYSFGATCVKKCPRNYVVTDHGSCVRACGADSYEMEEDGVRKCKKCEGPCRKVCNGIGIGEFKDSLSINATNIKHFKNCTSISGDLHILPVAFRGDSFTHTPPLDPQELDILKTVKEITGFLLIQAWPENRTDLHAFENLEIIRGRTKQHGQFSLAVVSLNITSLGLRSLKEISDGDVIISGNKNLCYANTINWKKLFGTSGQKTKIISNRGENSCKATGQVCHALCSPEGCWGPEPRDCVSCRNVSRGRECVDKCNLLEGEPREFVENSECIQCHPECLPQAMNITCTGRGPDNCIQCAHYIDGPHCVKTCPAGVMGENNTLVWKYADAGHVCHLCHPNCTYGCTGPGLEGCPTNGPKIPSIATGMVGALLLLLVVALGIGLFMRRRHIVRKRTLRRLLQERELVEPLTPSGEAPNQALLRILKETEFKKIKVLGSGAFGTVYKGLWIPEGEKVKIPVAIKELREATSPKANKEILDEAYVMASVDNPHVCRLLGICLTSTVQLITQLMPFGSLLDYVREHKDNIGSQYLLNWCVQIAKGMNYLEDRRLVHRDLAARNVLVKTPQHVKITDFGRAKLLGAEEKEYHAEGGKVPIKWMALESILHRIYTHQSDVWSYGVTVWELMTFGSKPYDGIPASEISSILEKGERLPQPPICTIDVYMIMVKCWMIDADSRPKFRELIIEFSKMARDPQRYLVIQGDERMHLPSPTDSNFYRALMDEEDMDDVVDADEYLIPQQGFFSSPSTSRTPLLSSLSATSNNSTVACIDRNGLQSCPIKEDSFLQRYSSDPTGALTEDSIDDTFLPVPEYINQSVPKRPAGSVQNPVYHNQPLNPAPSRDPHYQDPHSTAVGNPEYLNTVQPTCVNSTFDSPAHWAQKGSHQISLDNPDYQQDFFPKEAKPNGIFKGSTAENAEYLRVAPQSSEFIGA

IC50 [1] [nM]	IC50 [2] [nM]	Structure (SMILES)
2.41	–	Fc1ccc(-c2nn(CCOC(F)(F)F)cc2-c2ncnc3oc(-c4ccccc4)cc23)cc1 [US20250034159, Example 144]
8.54	6.32	O=S1(=O)CCC(n2cc(-c3ncnc4oc(-c5ccccc5)cc34)c(-c3ccc(F)cc3)n2)CC1 [US20250034159, Example 83]
0.42	–	O=S1(=O)CC(n2cc(-c3ncnc4oc(C5=CCN(S(=O)(=O)C6CC6)CC5)cc34)c(-c3ccc(F)cc3)n2)C1 [US20250034159, Example 177]
0.57	–	Fc1ccc(-c2nn(CCC(F)F)cc2-c2ccnc3oc(-c4ccccc4)cc23)cc1 [US20250034159, Example 157]
